Experiments:
johnson grass = experiment: Preemergent control of plant species; type: in vivo, Sorghum halepense; settings: Sorghum halepense, pre-emergence, 336 h; 0.25 lb/acre; read-out: percent preemergent control
In short: (§1)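 Preemergent application of aqueous emulsions at rates given in the table, uniformly over seeded greenhouse soil. Untreated (water) beds as comparison; rating after 2 weeks as reduction in growth.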

rape = experiment: Preemergent control of plant species; type: in vivo, Brassica napus; settings: Brassica napus, pre-emergence, 336 h; 0.25 lb/acre; read-out: percent preemergent control
In short: as §1

annual morning glory = experiment: Preemergent control of plant species; type: in vivo, Ipomoea spp.; settings: Ipomoea, pre-emergence, 336 h; 0.25 lb/acre; read-out: percent preemergent control
In short: as §1

barnyardgrass [1] = experiment: Preemergent control of plant species; type: in vivo, Echinochloa crusgalli; settings: Echinochloa crus-galli, pre-emergence, 336 h; 0.25 lb/acre; read-out: percent preemergent control
In short: as §1

corn = experiment: Preemergent control of plant species; type: in vivo, Zea mays; settings: Zea mays, pre-emergence, 336 h; 0.25 lb/acre; read-out: percent preemergent control
In short: as §1

barnyardgrass [2] = experiment: Control of aquatic plant species (paddy water); type: in vivo, Echinochloa crusgalli; settings: Echinochloa crus-galli, 216 h, nine days, read-out: Percent control
Description: In testing for such utility, the plant species to be tested were transplanted into 16 oz. containers into about 2 inches of soil when they were in the 1-2 inch stage and then flooded to a depth of about 1 inch. An acetone concentrate of the chemical to be tested was then injected into the paddy water, the volume injected being varied as desired to provide the desired concentration. Percent control was evaluated nine days after application.

yellow foxtail = experiment: Preemergent control of plant species; type: in vivo, Setaria lutescens; settings: Setaria, pre-emergence, 336 h; 0.25 lb/acre; read-out: percent preemergent control
In short: as §1

sprangletop = experiment: Control of aquatic plant species (paddy water); type: in vivo, Leptochloa filiformis; settings: Leptochloa filiformis, 216 h, nine days, read-out: Percent control
In short: (§2)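 First, young plants (1-2 inch stage) were set into about 2 inches of soil. Next, pots were flooded to about 1 inch depth. Then acetone concentrate was injected into the water at varying volumes to give the intended concentration. Finally, control was assessed after nine days.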

wheat = experiment: Preemergent control of plant species; type: in vivo, Triticum aestivum; settings: Triticum aestivum, pre-emergence, 336 h; 0.25 lb/acre; read-out: percent preemergent control
In short: as §1

velvetleaf = experiment: Preemergent control of plant species; type: in vivo, Abutilon theophrasti; settings: Abutilon theophrasti, pre-emergence, 336 h; 0.25 lb/acre; read-out: percent preemergent control
In short: as §1

rice [3] = experiment: Preemergent control of plant species; type: in vivo, Oryza sativa; settings: Oryza sativa, pre-emergence, 336 h; 0.25 lb/acre; read-out: percent preemergent control
In short: as §1

[4] = tested on: nitrification of ammonium nitrogen; experiment: Suppression of nitrification of ammonium nitrogen in soil; settings: 27° C.
In short: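 Soil (20 g) moistened to its 1/3 bar tension value, mixed with test chemical and incubated sealed for two weeks at 27° C. Nitrate extracted with ammonium sulfate solution and measured by nitrate-specific ion electrode; value given as % NH4-N remaining.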

cotton = experiment: Preemergent control of plant species; type: in vivo, Gossypium spp.; settings: Gossypium hirsutum, pre-emergence, 336 h; 0.25 lb/acre; read-out: percent preemergent control
In short: as §1

crabgrass = experiment: Preemergent control of plant species; type: in vivo, Digitaria spp.; settings: Digitaria sanguinalis, pre-emergence, 336 h; 0.25 lb/acre; read-out: percent preemergent control
Description: (§3) The seeds of various species of plants were planted in beds of good agricultural soil in a greenhouse. A number of compositions of the present invention, generally in the nature of an aqueous emulsion, were applied at rates listed in the table so as to deposit a predetermined amount of active ingredients uniformly throughout the surface of the bed. Another seed bed was treated only with water to serve as a control. After treatment the seed beds were maintained for two weeks under greenhouse conditions conducive for good plant growth and watered as necessary. Control refers to the reduction in growth compared to the observed results of the same untreated species.

sorghum = experiment: Preemergent control of plant species; type: in vivo, Sorghum vulgare; settings: Sorghum, pre-emergence, 336 h; 0.25 lb/acre; read-out: percent preemergent control
In short: as §1

jimsonweed = experiment: Preemergent control of plant species; type: in vivo, Datura stramonium; settings: Datura stramonium, pre-emergence, 336 h; 0.25 lb/acre; read-out: percent preemergent control
In short: as §1

rice [5] = experiment: Control of aquatic plant species (paddy water); type: in vivo, Oryza sativa; settings: Oryza sativa, 216 h, nine days, read-out: Percent control
In short: as §2

soybean = experiment: Preemergent control of plant species; type: in vivo, Glycine max.; settings: Glycine max, pre-emergence, 336 h; 0.25 lb/acre; read-out: percent preemergent control
In short: as §1

pigweed = experiment: Preemergent control of plant species; type: in vivo, Amaranthus spp.; settings: Amaranthus retroflexus, pre-emergence, 336 h; 0.25 lb/acre; read-out: percent preemergent control
Description: as §3

sugar beet = experiment: Preemergent control of plant species; type: in vivo, Beta saccharifera; settings: Beta vulgaris, pre-emergence, 336 h; 0.25 lb/acre; read-out: percent preemergent control
In short: as §1

yellow nutsedge [6] = experiment: Control of aquatic plant species (paddy water); type: in vivo, Cyperus esculentus; settings: Cyperus, 216 h, nine days, read-out: Percent control
In short: as §2

wild oats = experiment: Preemergent control of plant species; type: in vivo; settings: Avena fatua, pre-emergence, 336 h; 0.25 lb/acre; read-out: percent preemergent control
In short: as §1

yellow nutsedge [7] = experiment: Preemergent control of plant species; type: in vivo, Cyperus esculentus; settings: Cyperus, pre-emergence, 336 h; 0.25 lb/acre; read-out: percent preemergent control
In short: as §1

| Structure (SMILES) | pest or weed control at 280.212 g/ha (johnson grass) [%] | plant injury at 280.212 g/ha (rape) [%] | pest or weed control at 280.212 g/ha (annual morning glory) [%] | pest or weed control at 280.212 g/ha (barnyardgrass [1]) [%] | plant injury at 280.212 g/ha (corn) [%] | pest or weed control at 280.212 g/ha (yellow foxtail) [%] | plant injury at 280.212 g/ha (wheat) [%] | pest or weed control at 280.212 g/ha (velvetleaf) [%] | plant injury at 280.212 g/ha (rice [3]) [%] | % NH4-N Remaining After 2 Weeks Incubation ([4]; 1 ppm) [%] | plant injury at 280.212 g/ha (cotton) [%] | pest or weed control at 280.212 g/ha (crabgrass) [%] | plant injury at 280.212 g/ha (sorghum) [%] | pest or weed control at 280.212 g/ha (jimsonweed) [%] | plant injury at 280.212 g/ha (soybean) [%] | pest or weed control at 280.212 g/ha (pigweed) [%] | plant injury at 280.212 g/ha (sugar beet) [%] | pest or weed control at 280.212 g/ha (wild oats) [%] | % NH4-N Remaining After 2 Weeks Incubation ([4]; 0.06 ppm) [%] | % NH4-N Remaining After 2 Weeks Incubation ([4]; 0.25 ppm) [%] | also measured |
| --- | --- | --- | --- | --- | --- | --- | --- | --- | --- | --- | --- | --- | --- | --- | --- | --- | --- | --- | --- | --- | --- |
| Cc1cc(C)n2nc(S(=O)(=O)Nc3c(C)cccc3Cl)nc2n1 [Compound 31] | 100 | 98 | 100 | 100 | 95 | 100 | 98 | 95 | 98 | 86 | 80 | 100 | 50 | 65 | 95 | 95 | 100 | 98 | – | – | pest or weed control at 125 g/ha (barnyardgrass [2]; 0.125 Kg/Ha): 97%; pest or weed control at 125 g/ha (sprangletop; 0.125 Kg/Ha): 45%; % NH4-N Remaining After 2 Weeks Incubation ([4]; 0.01 ppm): 34%; % NH4-N Remaining After 2 Weeks Incubation ([4]; 0.1 ppm): 66%; % NH4-N Remaining After 2 Weeks Incubation ([4]; 10 ppm): 91%; pest or weed control at 125 g/ha (rice [5]; 0.125 Kg/Ha): 90%; pest or weed control at 125 g/ha (yellow nutsedge [6]; 0.125 Kg/Ha): 97% |
| Cc1nc2nc(S(=O)(=O)Nc3c(Cl)cccc3Cl)nn2c(C)c1C [Compound 111] | 75 | 95 | 20 | 15 | 35 | 30 | 0 | 80 | 65 | 69 | 20 | 90 | 65 | 95 | 10 | 50 | 90 | 0 | 22 | 60 | pest or weed control at 4000 g/ha (barnyardgrass [2]; 4.0 Kg/Ha): 99%; pest or weed control at 4000 g/ha (sprangletop; 4.0 Kg/Ha): 80%; % NH4-N Remaining After 2 Weeks Incubation ([4]; 4 ppm): 92%; pest or weed control at 280.212 g/ha (yellow nutsedge [7]): 93%; pest or weed control at 4000 g/ha (rice [5]; 4.0 Kg/Ha): 93%; pest or weed control at 4000 g/ha (yellow nutsedge [6]; 4.0 Kg/Ha): 99% |
| Cc1cc(C)n2nc(S(=O)(=O)Nc3c(F)cccc3F)nc2n1 [Compound 25, 5,7-Dimethyl-N-(2,6-difluorophenyl)-1,2,4-triazolo[1,5-a]pyrimidine-2-sulfonamide] | 98 | 100 | 80 | 98 | 100 | 100 | 70 | 98 | 100 | 79 | 98 | 100 | – | 98 | 98 | 100 | 100 | 95 | 31 | 48 | pest or weed control at 250 g/ha (barnyardgrass [2]; 0.25 Kg/Ha): 95%; pest or weed control at 250 g/ha (sprangletop; 0.25 Kg/Ha): 0%; % NH4-N Remaining After 2 Weeks Incubation ([4]; 0.125 ppm): 46%; % NH4-N Remaining After 2 Weeks Incubation ([4]; 0.5 ppm): 73%; pest or weed control at 280.212 g/ha (yellow nutsedge [7]): 95%; pest or weed control at 250 g/ha (rice [5]; 0.25 Kg/Ha): 97%; pest or weed control at 250 g/ha (yellow nutsedge [6]; 0.25 Kg/Ha): 90% |
